According to US8895733B2 (Novartis AG, priority 2010, dated 2014):

Target: T1, Nav 1.7 (Homo sapiens, UniProt Q15858)
T1 construct: expressed in transfected cells
Assay: Whole-cell voltage clamp electrophysiology, automated patch clamp (marker c in Table of Examples)
Type: cell-based
Settings: marker c = Automated patch clamp data; read-out: Nav 1.7 activity
Procedure, shortened: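 Human NaV1.7 currents were recorded by whole-cell automated patch clamp, on IonWorks Quattro or another automated platform, typically in perforated-patch configuration. The stimulus protocol was designed to probe block mainly of the inactivated state, with a typical sweep stepping from about −65 mV holding to −10 mV, then −100 mV.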

T1 sequence (Q15858 whole entry): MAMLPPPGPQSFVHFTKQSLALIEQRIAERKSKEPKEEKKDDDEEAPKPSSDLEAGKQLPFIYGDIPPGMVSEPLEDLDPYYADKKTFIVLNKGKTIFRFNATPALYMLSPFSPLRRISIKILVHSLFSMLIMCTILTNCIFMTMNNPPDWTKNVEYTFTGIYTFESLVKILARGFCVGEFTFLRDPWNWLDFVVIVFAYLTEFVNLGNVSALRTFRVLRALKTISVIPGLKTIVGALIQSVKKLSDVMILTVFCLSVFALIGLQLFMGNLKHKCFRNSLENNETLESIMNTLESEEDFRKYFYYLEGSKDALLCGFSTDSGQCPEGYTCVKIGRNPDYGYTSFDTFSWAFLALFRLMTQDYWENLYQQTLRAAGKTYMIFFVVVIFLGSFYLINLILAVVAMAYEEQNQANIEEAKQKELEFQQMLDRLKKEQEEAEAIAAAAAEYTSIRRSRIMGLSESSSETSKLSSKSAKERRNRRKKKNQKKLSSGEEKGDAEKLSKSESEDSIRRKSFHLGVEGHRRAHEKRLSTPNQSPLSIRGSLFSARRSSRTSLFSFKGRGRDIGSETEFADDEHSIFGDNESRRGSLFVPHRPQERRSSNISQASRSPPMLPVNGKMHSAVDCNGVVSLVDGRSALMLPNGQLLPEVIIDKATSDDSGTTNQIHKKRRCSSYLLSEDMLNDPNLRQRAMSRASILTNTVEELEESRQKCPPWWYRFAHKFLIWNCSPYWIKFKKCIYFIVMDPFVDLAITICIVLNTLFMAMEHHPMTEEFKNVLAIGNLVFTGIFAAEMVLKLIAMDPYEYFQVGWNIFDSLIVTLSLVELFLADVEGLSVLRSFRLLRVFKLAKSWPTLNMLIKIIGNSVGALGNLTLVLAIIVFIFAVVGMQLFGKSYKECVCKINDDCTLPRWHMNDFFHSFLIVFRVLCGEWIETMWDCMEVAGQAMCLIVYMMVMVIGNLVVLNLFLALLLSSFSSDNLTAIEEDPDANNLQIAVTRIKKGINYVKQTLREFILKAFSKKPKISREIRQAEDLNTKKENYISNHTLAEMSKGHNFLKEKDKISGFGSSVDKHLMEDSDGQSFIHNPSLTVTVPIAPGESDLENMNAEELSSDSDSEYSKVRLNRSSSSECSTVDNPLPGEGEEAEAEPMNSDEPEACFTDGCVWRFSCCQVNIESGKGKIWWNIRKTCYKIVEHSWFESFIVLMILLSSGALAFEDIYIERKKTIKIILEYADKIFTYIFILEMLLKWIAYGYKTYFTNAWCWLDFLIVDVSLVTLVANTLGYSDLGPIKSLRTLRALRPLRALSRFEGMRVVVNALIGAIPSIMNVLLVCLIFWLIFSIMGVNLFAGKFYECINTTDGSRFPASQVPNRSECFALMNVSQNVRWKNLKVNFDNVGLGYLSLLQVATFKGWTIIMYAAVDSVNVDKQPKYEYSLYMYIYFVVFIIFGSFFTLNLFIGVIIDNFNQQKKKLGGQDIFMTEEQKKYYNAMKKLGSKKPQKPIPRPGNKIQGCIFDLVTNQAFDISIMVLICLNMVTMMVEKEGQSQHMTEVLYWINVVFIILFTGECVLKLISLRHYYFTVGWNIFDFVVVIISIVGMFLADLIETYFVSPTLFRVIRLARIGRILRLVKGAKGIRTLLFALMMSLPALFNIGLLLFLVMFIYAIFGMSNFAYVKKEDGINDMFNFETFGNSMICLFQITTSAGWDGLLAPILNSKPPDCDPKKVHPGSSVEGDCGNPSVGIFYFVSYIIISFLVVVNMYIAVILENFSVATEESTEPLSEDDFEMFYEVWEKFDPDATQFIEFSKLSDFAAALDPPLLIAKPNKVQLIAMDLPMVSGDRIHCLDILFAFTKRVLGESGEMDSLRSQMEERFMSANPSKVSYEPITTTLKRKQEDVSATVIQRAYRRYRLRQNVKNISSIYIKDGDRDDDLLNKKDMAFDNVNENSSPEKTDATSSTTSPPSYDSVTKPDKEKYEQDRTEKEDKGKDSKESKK

`Nc1nc(Nc2ccccc2)nc(-c2noc(N3C[C@@H]4[C@@H](COCCC(F)(F)F)[C@@H]4C3)n2)n1` [Example 394, 2-N-phenyl-6-{5-[6-[(3,3,3-trifluoropropoxy)methyl]-3-azabicyclo[3.1.0]hexan-3-yl]-1,2,4-oxadiazol-3-yl}-1,3,5-triazine-2,4-diamine] gave an IC50 of 664 nM.
Work on `CN(c1ccccc1)c1nc(N)nc(-c2noc(N3C[C@@H]4[C@@H](COCC5CC5)[C@@H]4C3)n2)n1` [Example 395, 6-{5-[6-[(cyclopropylmethoxy)methyl]-3-azabicyclo[3.1.0]hexan-3-yl]-1,2,4-oxadiazol-3-yl}-2-N-methyl-2-N-phenyl-1,3,5-triazine-2,4-diamine] yielded an IC50 of 2660 nM.
For `CN(c1ccccc1)c1nc(N)nc(-c2noc(N3C[C@@H]4[C@@H](COCCC(F)(F)F)[C@@H]4C3)n2)n1` [Example 396, 2-N-methyl-2-N-phenyl-6-{5-[6-[(3,3,3-trifluoropropoxy)methyl]-3-azabicyclo[3.1.0]hexan-3-yl]-1,2,4-oxadiazol-3-yl}-1,3,5-triazine-2,4-diamine], the IC50 was 1130 nM.
`CC(C)OC[C@@H]1[C@H]2CN(c3nc(-c4nc(N)nc(N(C)c5ccccc5)n4)no3)C[C@@H]12` [Example 397, 2-N-methyl-2-N-phenyl-6-{5-[6-[(propan-2-yloxy)methyl]-3-azabicyclo[3.1.0]hexan-3-yl]-1,2,4-oxadiazol-3-yl}-1,3,5-triazine-2,4-diamine] was tested, and the IC50 was 3940 nM.
In the case of `CC(C)OC[C@@H]1[C@H]2CN(c3nc(-c4nc(N)nc(Nc5ccccc5)n4)no3)C[C@@H]12` [Example 398, 2-N-phenyl-6-{5-[(1R,5S,6S)-6-[(propan-2-yloxy)methyl]-3-azabicyclo[3.1.0]hexan-3-yl]-1,2,4-oxadiazol-3-yl}-1,3,5-triazine-2,4-diamine], the IC50 is reported as 691 nM.
For `CN(c1ccccc1)c1nc(N)nc(-c2noc(N3C[C@@H]4[C@@H](COC5CCCC5)[C@@H]4C3)n2)n1` [Example 399, 6-{5-[6-[(cyclopentyloxy)methyl]-3-azabicyclo[3.1.0]hexan-3-yl]-1,2,4-oxadiazol-3-yl}-2-N-methyl-2-N-phenyl-1,3,5-triazine-2,4-diamine], the IC50 was 620 nM.
`Nc1nc(Nc2ccccc2)nc(-c2noc(N3C[C@@H]4[C@@H](COC5CCCC5)[C@@H]4C3)n2)n1` [Example 400, 6-{5-[6-[(cyclopentyloxy)methyl]-3-azabicyclo[3.1.0]hexan-3-yl]-1,2,4-oxadiazol-3-yl}-2-N-phenyl-1,3,5-triazine-2,4-diamine] gave an IC50 of 292 nM.
`CN(c1ccccc1)c1nc(N)nc(-c2noc(C(=O)N3CCC(CSCC(F)(F)F)CC3)n2)n1` [Example 401, 2-N-Methyl-2-N-phenyl-6-{5-[(4-{[(2,2,2-trifluoroethyl)sulfanyl]methyl}piperidin-1-yl)carbonyl]-1,2,4-oxadiazol-3-yl}-1,3,5-triazine-2,4-diamine] showed an IC50 of 1040 nM.
Molecule `CN(c1ccccc1)c1nc(N)nc(-c2noc(C(=O)N3C[C@@H]4[C@@H](COCC(F)(F)F)[C@@H]4C3)n2)n1` [Example 402, 2-N-methyl-2-N-phenyl-6-(5-{[-6-[(2,2,2-trifluoroethoxy)methyl]-3-azabicyclo[3.1.0]hexan-3-yl]carbonyl}-1,2,4-oxadiazol-3-yl)-1,3,5-triazine-2,4-diamine] has an IC50 of 3970 nM.
`CN(c1ccccc1)c1nc(N)nc(-c2noc(C(=O)N3C[C@@H]4[C@@H](COCCC(F)(F)F)[C@@H]4C3)n2)n1` [Example 403, 2-N-methyl-2-N-phenyl-6-(5-{[-6-[(3,3,3-trifluoropropoxy)methyl]-3-azabicyclo[3.1.0]hexan-3-yl]carbonyl}-1,2,4-oxadiazol-3-yl)-1,3,5-triazine-2,4-diamine] gave an IC50 of 1290 nM.
With `CN(c1ccccc1)c1nc(N)nc(-c2noc(C(=O)N3C[C@@H]4[C@@H](COCC5CC5)[C@@H]4C3)n2)n1` [Example 404, 6-(5-{[-6-[(cyclopropylmethoxy)methyl]-3-azabicyclo[3.1.0]hexan-3-yl]carbonyl}-1,2,4-oxadiazol-3-yl)-2-N-methyl-2-N-phenyl-1,3,5-triazine-2,4-diamine] the IC50 was 3460 nM.
`CN(c1ccccc1)c1nc(N)nc(-c2noc(C(=O)N3C[C@@H]4[C@@H](COC5CCCC5)[C@@H]4C3)n2)n1` [Example 405, 6-(5-{[-6-[(cyclopentyloxy)methyl]-3-azabicyclo[3.1.0]hexan-3-yl]carbonyl}-1,2,4-oxadiazol-3-yl)-2-N-methyl-2-N-phenyl-1,3,5-triazine-2,4-diamine] showed an IC50 of 1280 nM.
`CN(c1ccccc1)c1nc(N)nc(-c2noc(C(=O)N3C[C@@H]4[C@@H](COc5ccccc5)[C@@H]4C3)n2)n1` [Example 406, 2-N-methyl-6-(5-{[-6-(phenoxymethyl)-3-azabicyclo[3.1.0]hexan-3-yl]carbonyl}-1,2,4-oxadiazol-3-yl)-2-N-phenyl-1,3,5-triazine-2,4-diamine] showed an IC50 of 624 nM.
`CN(c1cccc(F)c1)c1nc(N)nc(-c2noc(-c3ccc(OCC(F)(F)F)nc3)n2)n1` [Example 407, 2-N-(3-fluorophenyl)-2-N-methyl-6-{5-[6-(2,2,2-trifluoroethoxy)pyridin-3-yl]-1,2,4-oxadiazol-3-yl}-1,3,5-triazine-2,4-diamine] was tested, and the IC50 was 201 nM.
For `CN(c1nc(N)nc(-c2noc(-c3ccc(OCC(F)(F)F)nc3)n2)n1)c1ccccc1F` [Example 408, 2-N-(2-fluorophenyl)-2-N-methyl-6-{5-[6-(2,2,2-trifluoroethoxy)pyridin-3-yl]-1,2,4-oxadiazol-3-yl}-1,3,5-triazine-2,4-diamine], the IC50 was 139 nM.
With `CN(c1cccc(Cl)c1)c1nc(N)nc(-c2noc(-c3ccc(OCC(F)(F)F)nc3)n2)n1` [Example 409, 2-N-(3-chlorophenyl)-2-N-methyl-6-{5-[6-(2,2,2-trifluoroethoxy)pyridin-3-yl]-1,2,4-oxadiazol-3-yl}-1,3,5-triazine-2,4-diamine] the IC50 was 261 nM.
In the case of `CN(c1ccc(F)cc1)c1nc(N)nc(-c2noc(-c3ccc(OCC(F)(F)F)nc3)n2)n1` [Example 410, 2-N-(4-fluorophenyl)-2-N-methyl-6-{5-[6-(2,2,2-trifluoroethoxy)pyridin-3-yl]-1,2,4-oxadiazol-3-yl}-1,3,5-triazine-2,4-diamine], the IC50 is reported as 1150 nM.
In the case of `Cc1cccc(N(C)c2nc(N)nc(-c3noc(-c4ccc(OCC(F)(F)F)nc4)n3)n2)c1` [Example 412, 2-N-methyl-2-N-(3-methylphenyl)-6-{5-[6-(2,2,2-trifluoroethoxy)pyridin-3-yl]-1,2,4-oxadiazol-3-yl}-1,3,5-triazine-2,4-diamine], the IC50 is reported as 82 nM.
Molecule `Nc1nc(Nc2ccc(F)c(Cl)c2)nc(-c2noc(-c3ccc(OCC(F)(F)F)nc3)n2)n1` [Example 413, 2-N-(3-Chloro-4-fluorophenyl)-6-{5-[6-(2,2,2-trifluoroethoxy)pyridin-3-yl]-1,2,4-oxadiazol-3-yl}-1,3,5-triazine-2,4-diamine] has an IC50 of 9020 nM.
With `CN(c1ccc(F)c(Cl)c1)c1nc(N)nc(-c2noc(-c3ccc(OCC(F)(F)F)nc3)n2)n1` [Example 414, 2-N-(3-Chloro-4-fluorophenyl)-2-N-methyl-6-{5-[6-(2,2,2-trifluoroethoxy)pyridin-3-yl]-1,2,4-oxadiazol-3-yl}-1,3,5-triazine-2,4-diamine] the IC50 was 410 nM.
For `COc1cccc(-c2nc(-c3nc(N)nc(N(C)c4ccccc4)n3)no2)n1` [Example 415, 6-[5-(6-methoxypyridin-2-yl)-1,2,4-oxadiazol-3-yl]-2-N-methyl-2-N-phenyl-1,3,5-triazine-2,4-diamine], the IC50 was 567 nM.
For `Nc1nc(Nc2ccc(F)c(F)c2)nc(-c2noc(-c3ccc(OCC(F)(F)F)nc3)n2)n1` [Example 416, 2-N-(3,4-difluorophenyl)-6-{5-[6-(2,2,2-trifluoroethoxy)pyridin-3-yl]-1,2,4-oxadiazol-3-yl}-1,3,5-triazine-2,4-diamine], the IC50 was 1500 nM.
For `CN(c1nc(N)nc(-c2noc(-c3ccc(OCC(F)(F)F)nc3)n2)n1)c1ccc(F)cc1F` [Example 417, 2-N-(2,4-difluorophenyl)-2-N-methyl-6-{5-[6-(2,2,2-trifluoroethoxy)pyridin-3-yl]-1,2,4-oxadiazol-3-yl}-1,3,5-triazine-2,4-diamine], the IC50 was 28 nM.
In the case of `CN(c1ccccc1)c1nc(N)nc(-c2noc(-c3ccc(Cl)nc3)n2)n1` [Example 418, 6-[5-(6-chloropyridin-3-yl)-1,2,4-oxadiazol-3-yl]-2-N-methyl-2-N-phenyl-1,3,5-triazine-2,4-diamine], the IC50 is reported as 1640 nM.
Work on `CCOc1ncccc1-c1nc(-c2nc(N)nc(N(C)c3ccccc3)n2)no1` [Example 419, 6-[5-(2-ethoxypyridin-3-yl)-1,2,4-oxadiazol-3-yl]-2-N-methyl-2-N-phenyl-1,3,5-triazine-2,4-diamine] yielded an IC50 of 1450 nM.
In the case of `CN(c1ccccc1)c1nc(N)nc(-c2noc(-c3ccc(C(F)(F)F)cn3)n2)n1` [Example 420, 2-N-methyl-2-N-phenyl-6-{5-[5-(trifluoromethyl)pyridin-2-yl]-1,2,4-oxadiazol-3-yl}-1,3,5-triazine-2,4-diamine], the IC50 is reported as 2300 nM.
In the case of `CN(c1ccccc1)c1nc(N)nc(-c2noc(-c3ccc(S(C)(=O)=O)cc3)n2)n1` [Example 421, 6-[5-(4-methanesulfonylphenyl)-1,2,4-oxadiazol-3-yl]-2-N-methyl-2-N-phenyl-1,3,5-triazine-2,4-diamine], the IC50 is reported as 1430 nM.
`CN(c1ccccc1)c1nc(N)nc(-c2noc(C3CCC(N)CC3)n2)n1` (stereo not drawn) [Example 422, 6-[5-(4-Aminocyclohexyl)-1,2,4-oxadiazol-3-yl]-2-N-methyl-2-N-phenyl-1,3,5-triazine-2,4-diamine] was tested, and the IC50 was 9430 nM.
`CN(c1ccccc1)c1nc(N)nc(-c2noc(C3CCC(NC(=O)OC(C)(C)C)CC3)n2)n1` (stereo not drawn) [Example 423, tert-butyl N-[4-(3-{4-amino-6-[methyl(phenyl)amino]-1,3,5-triazin-2-yl}-1,2,4-oxadiazol-5-yl)cyclohexyl]carbamate] gave an IC50 of 684 nM.
With `CN(c1ccccc1)c1nc(N)nc(-c2noc(C3CCC(O)CC3)n2)n1` (stereo not drawn) [Example 424, 4-(3-{4-amino-6-[methyl(phenyl)amino]-1,3,5-triazin-2-yl}-1,2,4-oxadiazol-5-yl)cyclohexan-1-ol] the IC50 was 2810 nM.
